Earlier results as cited in US20210319872A1, “DRUG AND DEVICE COMBINATION PRODUCTS WITH IMPROVED SAFETY AND EFFICACY PROFILES” (priority 2016, published 2021).
Read-outs that look alike come from different tables or passages of the source.

C[C@H](O)[C@H](O)[C@H]1CNc2[nH]c(N)nc(=O)c2N1.Cl.Cl [Kuvan]
Cough (in vivo): Respiratory: Cough (4% or more), Nasal congestion (4% or more), | Diarrhea (in vivo): Gastrointestinal: Diarrhea (4% or more), Vomiting (4% or more) | Headache (in vivo): Neurologic: Headache (4% or greater) | Nasal congestion (in vivo): Respiratory: Cough (4% or more), Nasal congestion (4% or more), | Nasal discharge (in vivo): Nasal discharge (4% or more), Pain in throat (4% or more), Upper | Pain in throat (in vivo): Nasal discharge (4% or more), Pain in throat (4% or more), Upper | Serious side effect, Cardiovascular (in vivo): Cardiovascular: Myocardial infarction | Serious side effect, Gastrointestinal (in vivo): Gastrointestinal: Gastrointestinal hemorrhage | Serious side effect, Hematologic (in vivo): Hematologic: Hemorrhage, Post-procedural | Serious side effect, Neurologic (in vivo): Neurologic: Seizure | Serious side effect, Respiratory (in vivo): Respiratory: Respiratory failure | Upper respiratory infection (in vivo): respiratory infection (17%) | Vomiting (in vivo): Gastrointestinal: Diarrhea (4% or more), Vomiting (4% or more)

COC(=O)C(c1ccccc1)C1CCCCN1 (stereo not drawn) [Methylphenidate]
Aggressive behavior (in vivo): Psychiatric: Aggressive behavior (Adult, 1.7%), Mania, Psychotic | Decrease in appetite (in vivo): appetite (Adult, 25.3%; pediatric, 2% to 9% or greater), Loss of | Diaphoresis (in vivo): Dermatologic: Diaphoresis (Adult, 5.1%) | Dizziness (in vivo): Neurologic: Dizziness (Adult, 6.7%; pediatric, 1.9%.), Headache | Headache (in vivo): (Adult, 22.2%; pediatric, up to 12%), Insomnia (Adult, 12.3%; | Irritability (in vivo): 3.9%), Irritability (Adult, 5.8%) | Nausea (in vivo): (Adult, 12.8%), Vomiting (2% or greater), Xerostomia (Adult, | Serious side effect, Endocrine metabolic (in vivo): Endocrine metabolic: Decreased body growth | Serious side effect, Gastrointestinal (in vivo): Gastrointestinal: Gastrointestinal obstruction, with preexisting | Serious side effect, Hepatic (in vivo): Hepatic: Abnormal liver function | Serious side effect, Psychiatric (in vivo): Psychiatric: Aggressive behavior (Adult, 1.7%), Mania, Psychotic | Serious side effect, Reproductive (in vivo): Reproductive: Priapism | Tachycardia (in vivo): Cardiovascular: Tachycardia (Adult, 4.8%) | Vomiting (in vivo): (Adult, 12.8%), Vomiting (2% or greater), Xerostomia (Adult, | Weight decreased (in vivo): Endocrine metabolic: Weight decreased (Adult, 6.5%) | Xerostomia (in vivo): 14%)

CCCCc1nc(Cl)c(CO)n1Cc1ccc(-c2ccccc2-c2nnn[nH]2)cc1 [Losartan (Cozaar)]
Anemia (in vivo): Hematologic: Anemia (14%) | Chest pain (in vivo): Cardiovascular: Chest pain (12%), Hypotension (7%) | Cough (in vivo): Respiratory: Cough (10%) | Diarrhea (in vivo): Gastrointestinal: Diarrhea (15%) | Dizziness (in vivo): Neurologic: Asthenia, Dizziness (3%) | Hyperkalemia (in vivo): Endocrine metabolic: Hyperkalemia (7%), Hypoglycemia (14%) | Hypoglycemia (in vivo): Endocrine metabolic: Hyperkalemia (7%), Hypoglycemia (14%) | Hypotension (in vivo): Cardiovascular: Chest pain (12%), Hypotension (7%)

O=C(Nc1c(Cl)cncc1Cl)c1ccc(OC(F)F)c(OCC2CC2)c1 [Daliresp]
Backache (in vivo): Musculoskeletal: Backache (3.2%) | Decrease in appetite (in vivo): 2.1% | Diarrhea (in vivo): 9.5% | Dizziness (in vivo): 2.1% | Headache (in vivo): 4.4% | Influenza (in vivo): Immunologic: Influenza (2.8%) | Insomnia (in vivo): 2.4% | Nausea (in vivo): Nausea (4.7%) | Serious side effect, Psychiatric (listed without frequency): Psychiatric: Suicidal thoughts

CCOC(=O)[C@H](CCc1ccccc1)N[C@H]1CCc2ccccc2N(CC(=O)O)C1=O [Benazepril (Lotensin)]
Angioedema, head and neck (in vivo): Other: Angioedema, head and neck (0.5%) | Cough (in vivo): Respiratory: Cough (1.2%) | Dizziness (in vivo): Neurologic: Dizziness (3.6%), Headache (6.2%) | Fatigue (in vivo): Other: Fatigue (2.4%) | Headache (in vivo): Neurologic: Dizziness (3.6%), Headache (6.2%) | Stevens-Johnson syndrome (in vivo): Dermatologic: Stevens-Johnson syndrome (less than 1%)

O=C(O)C(O)C(O)C(=O)O.c1cnc2cc3c(cc2n1)[C@@H]1CNC[C@H]3C1 [Chantix]
Acquired night blindness (in vivo): Ophthalmic: Acquired night blindness (rare), Blurred vision | Angina (in vivo): Cardiovascular: Angina (2.3%), Myocardial infarction (2%) | Constipation (in vivo): Gastrointestinal: Constipation (5% to 8%), Flatulence (6% to 9%), | Depression (in vivo): Psychiatric: Abnormal behavior, Depression (3.5% to 11%), | Dream disorder (in vivo): Neurologic: Dream disorder (9% to 13%), Headache (11% to 19%), | Flatulence (in vivo): Gastrointestinal: Constipation (5% to 8%), Flatulence (6% to 9%), | Headache (in vivo): Neurologic: Dream disorder (9% to 13%), Headache (11% to 19%), | Hostile behavior (in vivo): Hostile behavior (2%), Mood disorder (2.3%), Suicidal behavior, | Insomnia (in vivo): Insomnia (10% to 19%) | Mood disorder (in vivo): Hostile behavior (2%), Mood disorder (2.3%), Suicidal behavior, | Myocardial infarction (in vivo): Cardiovascular: Angina (2.3%), Myocardial infarction (2%) | Nausea (in vivo): Nausea (30%), Vomiting (5% to 11%) | Retinal vascular disorder (in vivo): (infrequent), Retinal vascular disorder (rare), Subcapsular cataract | Serious side effect, Neurologic (in vivo): Neurologic: Cerebrovascular accident | Serious side effect, Psychiatric (in vivo): Psychiatric: Abnormal behavior, Depression (3.5% to 11%), | Subcapsular cataract (in vivo): (rare), Transient blindness (rare), Visual disturbance (infrequent) | Suicidal behavior, and/or ideation (in vivo): and/or ideation (6% to 11%) | Transient blindness (in vivo): (rare), Transient blindness (rare), Visual disturbance (infrequent) | Visual disturbance (in vivo): (rare), Transient blindness (rare), Visual disturbance (infrequent) | Vomiting (in vivo): Nausea (30%), Vomiting (5% to 11%)

O=C1CC2(CCCC2)CC(=O)N1CCCCN1CCN(c2ncccn2)CC1 [Buspirone (Buspar)]
Cerebrovascular accident (in vivo): Neurologic: Cerebrovascular accident (less than 0.1%) | Congestive heart failure (in vivo): Cardiovascular: Congestive heart failure (less than 0.1%), | Dizziness (in vivo): Neurologic: Dizziness (12%), Headache (6%), Somnolence (10%) | Feeling nervous (in vivo): Psychiatric: Feeling nervous (5%) | Headache (in vivo): Neurologic: Dizziness (12%), Headache (6%), Somnolence (10%) | Myocardial infarction (in vivo): Myocardial infarction (less than 0.1%) | Nausea (in vivo): Gastrointestinal: Nausea (8%) | Somnolence (in vivo): Neurologic: Dizziness (12%), Headache (6%), Somnolence (10%)

C[C@@H](Cc1ccccc1)NC(=O)[C@@H](N)CCCCN [Lisdexamfetamine (Vyvanse)]
Anxiety (in vivo): Psychiatric: Anxiety (Adults, 5% to 6%), Irritability (pediatrics, | Common side effects, listed without incidence (in vivo): Endocrine metabolic: Decreased body growth, Weight decreased | Diarrhea (in vivo): Gastrointestinal: Diarrhea (adults, 7%), Loss of appetite (adults, 8% | Irritability (in vivo): 10%) | Rash (in vivo): Dermatologic: Rash (pediatrics, 3%) | Upper abdominal pain (in vivo): 6%), Upper abdominal pain (pediatrics, 12%), Vomiting | Vomiting (in vivo): (pediatrics, 9%), Xerostomia (Adults, 26% to 36%; pediatrics, 4% | Weight decreased (in vivo): (pediatrics, 9%) | Xerostomia (in vivo): (pediatrics, 9%), Xerostomia (Adults, 26% to 36%; pediatrics, 4%

Cc1nc2n(c(=O)c1CCN1CCC(c3noc4cc(F)ccc34)CC1)CCCC2 [Risperidone (Risperdal)]
Akathisia (in vivo): Neurologic: Akathisia (oral, up to 10%; IM, 4% to 11%), Dizziness | Anxiety (in vivo): Psychiatric: Anxiety (oral, up to 16% IM, less than 4%) | Constipation (in vivo): Gastrointestinal: Constipation (oral, 8% to 21%; IM, 5% to 7%), | Diarrhea (in vivo): Diarrhea (oral, 1% to 8%; IM, less than 4%), Excessive salivation | Dystonia (in vivo): < 5%; pediatric, 2% to 6%; IM, adult, less than 4%), Parkinsonism | Excessive salivation (in vivo): (oral, 1% to 10%; IM, 1% to 4%), Increased appetite (oral, adult, | Fatigue (in vivo): 3% to 9%), Pain, General (IM, 1% to 4%) | Hyperprolactinemia (in vivo): < 1%; pediatrics, 49% to 87%; IM, less than 4%), Weight increased | Increased appetite (in vivo): more than 5%; pediatric, 4% to 47%; IM, 4%), Indigestion (oral, | Indigestion (in vivo): 2% to 10%; IM, 6%), Nausea (oral, 4% to 16%; IM, 3% to 4%), | Nausea (in vivo): 2% to 10%; IM, 6%), Nausea (oral, 4% to 16%; IM, 3% to 4%), | Pain, General (in vivo): 3% to 9%), Pain, General (IM, 1% to 4%) | Parkinsonism (in vivo): (oral, 6% to 28%; IM, 8% to 15%), Sedated (oral, adult, 3% to 6%; | Rash (in vivo): IM, less than 4%) | Syncope (in vivo): Syncope (oral, up to 1%; IM, up to 2%) | Tardive dyskinesia (in vivo): less than 5%; IM, less than 4%) | Tremor (in vivo): pediatric, 8% to 29%), Tremor (oral, 2% to 12%; IM, 3% to 24%) | Upper respiratory infection (in vivo): respiratory infection (oral, 2% to 8%; IM, 2% and 6%) | Vomiting (in vivo): < 16%), Vomiting (oral, 10% to 25%; IM, less than 4%), Xerostomia | Weight increased (in vivo): (oral, adult, 8.7% to 20.9%; pediatric, 14% to 32.6%; IM, adult, 8% | Xerostomia (in vivo): (oral, 4% to 15%; IM, up to 7%) | Akathisia (in vivo, po): Neurologic: Akathisia (oral, up to 10%; IM, 4% to 11%), Dizziness | Anxiety (in vivo, po): Psychiatric: Anxiety (oral, up to 16% IM, less than 4%) | Cerebrovascular accident (in vivo, po): Neurologic: Cerebrovascular accident (oral, less than 5%; IM, less | Constipation (in vivo, po): Gastrointestinal: Constipation (oral, 8% to 21%; IM, 5% to 7%), | Diarrhea (in vivo, po): Diarrhea (oral, 1% to 8%; IM, less than 4%), Excessive salivation | Excessive salivation (in vivo, po): (oral, 1% to 10%; IM, 1% to 4%), Increased appetite (oral, adult, | Fatigue (in vivo, po): Other: Fatigue (oral, adult, 1% to 3%; pediatric, 18% to 42%; IM, | Hyperprolactinemia (in vivo, po): < 1%; pediatrics, 49% to 87%; IM, less than 4%), Weight increased | Increased appetite (in vivo, po): more than 5%; pediatric, 4% to 47%; IM, 4%), Indigestion (oral, | Indigestion (in vivo, po): 2% to 10%; IM, 6%), Nausea (oral, 4% to 16%; IM, 3% to 4%), | Nasal congestion (in vivo, po): 4%), Nasal congestion (oral, adult, 4% to 6%; pediatric, 13%), | Nausea (in vivo, po): 2% to 10%; IM, 6%), Nausea (oral, 4% to 16%; IM, 3% to 4%), | Pain in throat (in vivo, po): throat (oral, adult, more than 5%; pediatric, 3% to 10%), Upper | Parkinsonism (in vivo, po): (oral, 6% to 28%; IM, 8% to 15%), Sedated (oral, adult, 3% to 6%; | Rash (in vivo, po): Dermatologic: Rash (oral, adults, 1% to 4%; pediatrics, up to 11%; | Syncope (in vivo, po): Syncope (oral, up to 1%; IM, up to 2%) | Tardive dyskinesia (in vivo, po): less than 5%; IM, less than 4%) | Tremor (in vivo, po): pediatric, 8% to 29%), Tremor (oral, 2% to 12%; IM, 3% to 24%) | Upper respiratory infection (in vivo, po): respiratory infection (oral, 2% to 8%; IM, 2% and 6%) | Vomiting (in vivo, po): 16%), Vomiting (oral, 10% to 25%; IM, less than 4%), Xerostomia | Weight increased (in vivo, po): (oral, adult, 8.7% to 20.9%; pediatric, 14% to 32.6%; IM, adult, 8% | Xerostomia (in vivo, po): (oral, 4% to 15%; IM, up to 7%)
